US10654834B2 (Venenum Biodesign, LLC, priority 2016, dated 2020)

How the values were obtained:
[1] = molecular target: T1, human TGR5 receptor (Homo sapiens, UniProt Q8TDU6); experiment: Human TGR5 cAMP production assay (hTGR5-CHO cells, DiscoveRx cAMP XS+ kit); assay type: cell-based; conditions: luminescent cAMP assay, read-out: Human TGR5 Lum. cAMP Activity (EC50)
T1 construct: host or cells: CHO-K1 (hTGR5-CHO)
T1 sequence (Q8TDU6 1-330): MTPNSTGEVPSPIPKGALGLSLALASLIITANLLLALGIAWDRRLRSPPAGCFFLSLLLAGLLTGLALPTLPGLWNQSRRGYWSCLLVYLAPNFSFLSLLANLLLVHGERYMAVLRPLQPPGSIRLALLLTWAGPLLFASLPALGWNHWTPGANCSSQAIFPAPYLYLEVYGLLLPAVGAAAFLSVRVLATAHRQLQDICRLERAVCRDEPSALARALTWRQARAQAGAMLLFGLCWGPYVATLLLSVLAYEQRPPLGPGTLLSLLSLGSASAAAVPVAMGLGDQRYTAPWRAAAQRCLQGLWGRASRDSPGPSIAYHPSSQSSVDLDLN
Procedure, shortened: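 EC50 values come from luminescent enzyme-complementation cAMP detection, read after overnight incubation. Beforehand, hTGR5-expressing CHO-K1 cells with IBMX and anti-cAMP antibody were exposed 1 h at room temperature to serially diluted (half-log) compounds.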

[2] = molecular target: T2, mouse TGR5 receptor (Mus musculus, UniProt Q80SS6); experiment: Mouse TGR5 HTRF cAMP production assay (HEK293-EBNA cells, Cisbio cAMP HiRange kit); assay type: cell-based; conditions: HEK293-EBNA cells overexpressing mouse TGR5, HTRF cAMP assay
T2 construct: host or cells: HEK293-EBNA (293 c18, ATCC CRL10852)
T2 sequence (Q80SS6 1-329): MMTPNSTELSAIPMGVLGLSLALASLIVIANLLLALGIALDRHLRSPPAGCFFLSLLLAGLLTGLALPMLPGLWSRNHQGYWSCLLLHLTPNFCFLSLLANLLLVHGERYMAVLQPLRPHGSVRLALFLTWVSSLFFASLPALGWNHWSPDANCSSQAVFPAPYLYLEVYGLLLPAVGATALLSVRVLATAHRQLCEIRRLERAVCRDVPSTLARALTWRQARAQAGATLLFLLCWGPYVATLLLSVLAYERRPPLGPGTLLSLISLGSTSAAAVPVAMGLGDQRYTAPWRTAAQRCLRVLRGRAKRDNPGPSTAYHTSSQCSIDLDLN
Procedure, shortened: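 cAMP accumulation was read by competitive HTRF after 1 h room-temperature compound treatment, with a further 1 h conjugate incubation. Cells were mouse TGR5-overexpressing HEK293-EBNA in serum-free DMEM plus 500 μM IBMX. Compounds ran as 12-point half-log series in duplicate, and EC50 values were reported.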

Row | Compound | EC50 [1] [nM] | EC50 [2] [nM]
1 | N#Cc1ccc(CCNC(=O)[C@@H]2CC(F)(F)CN2c2cc(N3CCC(CCNC(=O)NCCS(=O)(=O)O)CC3)nc(C(F)(F)F)n2)cc1 [Compound 216, (S)-2-(3-(2-(1-(6-(2-((4-cyanophenethyl)carbamoyl)-4,4-difluoropyrrolidin-1-yl)-2-(trifluoromethyl)pyrimidin-4-yl)piperidin-4-yl)ethyl)ureido)ethanesulfonic acid] | 100 to 999 | 100 to 999
2 | N#Cc1ccc(CCNC(=O)[C@@H]2CCCN2c2cc(-c3ccc(CCC(=O)O)cc3)cc(C(F)(F)F)n2)cc1 [Compound 205, (S)-3-(4-(2-(2-((4-cyanophenethyl)carbamoyl)pyrrolidin-1-yl)-6-(trifluoromethyl)pyridin-4-yl)phenyl)propanoic acid] | < 100 | < 100
3 | CN(C)CCN1CCN(c2cc(N3CCC[C@H]3C(=O)NCCc3ccc(C#N)cc3)nc(C(F)(F)F)n2)CC1 [Compound 30] | 100 to 999 | 100 to 999
4 | CC(=O)NCCOCCNC(=O)NCCC1CCN(c2cc(N3CC[C@H]3C(=O)NCCc3ccc(C#N)cc3)nc(C(F)(F)F)n2)CC1 [Compound 359, (S)-N-(4-cyanophenethyl)-1-(6-(4-(4,12-dioxo-8-oxa-3,5,11-triazatridecyl)piperidin-1-yl)-2-(trifluoromethyl)pyrimidin-4-yl)azetidine-2-carboxamide] | < 100 | < 100
5 | O=C(NCCc1ccc(C(F)(F)F)cc1)[C@@H]1CCN1c1cc(N2CCC(CCCC3CCN(C(=O)CS(=O)(=O)O)CC3)CC2)nc(C(F)(F)F)n1 [Compound 280, (S)-2-oxo-2-(4-(3-(1-(2-(trifluoromethyl)-6-(2-((4-(trifluoromethyl)phenethyl)carbamoyl)azetidin-1-yl)pyrimidin-4-yl)piperidin-4-yl)propyl)piperidin-1-yl)ethanesulfonic acid] | 100 to 999 | < 100
6 | N#Cc1ccc(CCNC(=O)[C@@H]2CCCN(c3cc(N4CCN(CCn5ccnc5)CC4)nc(C(F)(F)F)n3)C2)cc1 [Compound 318, (R)-1-(6-(4-(2-(1H-imidazol-1-yl)ethyl)piperazin-1-y1)-2-(trifluoromethyl)pyrimidin-4-yl)-N-(4-cyanophenethyl)piperidine-3-carboxamide] | 100 to 999 | < 100
7 | CC(C)(C)OC(=O)CCNc1c(NCCC2CCN(c3cc(N4CC[C@H]4C(=O)NCCc4ccc(C#N)cc4)nc(C(F)(F)F)n3)CC2)c(=O)c1=O [Compound 300, (S)-tert-butyl 3-((2-((2-(1-(6-(2-((4-cyanophenethyl)carbamoyl)azetidin-1-yl)-2-(trifluoromethyl)pyrimidin-4-yl)piperidin-4-yl)ethyl)amino)-3,4-dioxocyclobut-1-en-1-yl)amino)propanoate] | 100 to 999 | < 100
8 | O=C(O)CCCC1CCN(c2cc(N3CC[C@H]3C(=O)NCCc3ccc(C(F)(F)F)cc3)nc(C(F)(F)F)n2)CC1 [Compound 233, (S)-4-(1-(2-(trifluoromethyl)-6-(2-((4-(trifluoromethyl)phenethyl)carbamoyl)azetidin-1-yl)pyrimidin-4-yl)piperidin-4-yl)butanoic acid] | < 100 | < 100
9 | N#Cc1ccc(CCNC(=O)[C@@H]2CCCN2c2cc(-c3ccc(C(=O)O)s3)nc(C(F)(F)F)n2)cc1 [Compound 181, (S)-5-(6-(2-((4-cyanophenethyl)carbamoyl)pyrrolidin-1-yl)-2-(trifluoromethyl)pyrimidin-4-yl)thiophene-2-carboxylic acid] | 100 to 999 | < 100
10 | COC(=O)[C@@H](N)CCCCNC(=O)CCCC1CCN(c2cc(N3CCC[C@H]3C(=O)NCCc3ccc(C#N)cc3)nc(C(F)(F)F)n2)CC1 [Compound 71, (S)-methyl 2-amino-6-(4-(1-(6-((S)-2-((4-cyanophenethyl)carbamoyl)-pyrrolidin-1-yl)-2-(trifluoromethyl)-pyrimidin-4-yl)piperidin-4-yl)butanamido)hexanoate] | < 100 | < 100
11 | N#Cc1ccc(CCNC(=O)[C@@H]2CCCN2c2cc(-c3ccc(COCC(=O)O)cc3)cc(C(F)(F)F)n2)cc1 [Compound 208, (S)-2-((4-(2-(2-((4-cyanophenethyl)carbamoyl)pyrrolidin-1-yl)-6-(trifluoromethyl)pyridin-4-yl)benzyl)oxy)acetic acid] | 100 to 999 | < 100
12 | O=C(O)CCNC(=O)NCCC1CCN(c2cc(N3CCC[C@H]3C(=O)NCCc3ccc(-c4cccnc4)cc3)nc(C(F)(F)F)n2)CC1 [Compound 377, (S)-3-(3-(2-(1-(6-(2-((4-(pyridin-3-yl)phenethyl)carbamoyl)pyrrolidin-1-yl)-2-(trifluoromethyl)pyrimidin-4-yl)piperidin-4-yl)ethyl)ureido)propanoic acid] | 100 to 999 | 100 to 999
13 | N=C(N)N1CCC(C2CCN(c3cc(N4CC[C@H]4C(=O)NCCc4ccc(C(F)(F)F)cc4)nc(C(F)(F)F)n3)CC2)CC1 [Compound 289, (S)-1-(6-(1′-carbamimidoyl-[4,4′-bipiperidin]-1-yl)-2-(trifluoromethyl)pyrimidin-4-yl)-N-(4-(trifluoromethyl)phenethyl)-azetidine-2-carboxamide] | < 100 | < 100
14 | N#Cc1ccc(CCNC(=O)[C@@H]2CCCN2c2cc(C(F)(F)F)cc(N3CCC(CO)CC3)n2)cc1 [Compound 37] | 1000 to 30000 | > 30000

Continued, values first:

Row | EC50 [1] [nM] | EC50 [2] [nM] | Compound
15 | < 100 | < 100 | CN(CCS(=O)(=O)O)c1c(NCCC2CCN(c3cc(N4CC[C@H]4C(=O)NCCc4ccc(C#N)cc4)nc(C(F)(F)F)n3)CC2)c(=O)c1=O [Compound 299, (S)-2-((2-((2-(1-(6-(2-((4-cyanophenethyl)carbamoyl)azetidin-1-yl)-2-(trifluoromethyl)pyrimidin-4-yl)piperidin-4-yl)ethyl)amino)-3,4-dioxocyclobut-1-en-1-yl)(methyl)amino)ethanesulfonic acid]
16 | 100 to 999 | < 100 | CN(CC#CCOC1CCN(c2cc(N3CCC[C@H]3C(=O)NCCc3ccc(C#N)cc3)nc(C(F)(F)F)n2)CC1)CCS(=O)(=O)O [Compound 135, (S)-2-((4-((1-(6-(2-((4-cyanophenethyl)carbamoyl)pyrrolidin-1-yl)-2-(trifluoromethyl)pyrimidin-4-yl)piperidin-4-yl)oxy)but-2-yn-1-yl)(methyl)amino)ethanesulfonic acid]
17 | < 100 | < 100 | N#Cc1ccccc1CCNC(=O)[C@@H]1CCCN1c1cc(N2CCC(CCCC(=O)NCS(=O)(=O)O)CC2)nc(C(F)(F)F)n1 [Compound 366, (S)-(4-(1-(6-(2-((2-cyanophenethyl)carbamoyl)pyrrolidin-1-yl)-2-(trifluoromethyl)pyrimidin-4-yl)piperidin-4-yl)butanamido)methanesulfonic acid]
18 | < 100 | 100 to 999 | COc1cc(C(F)(F)F)ccc1CCNC(=O)[C@@H]1CCCN(c2cc(N3CCC(CO)CC3)nc(C(F)(F)F)n2)C1 [Compound 331]
19 | < 100 | < 100 | N#Cc1ccc(CCNC(=O)[C@@H]2CCCN(c3cc(N4CCC(CCN)CC4)nc(C(F)(F)F)n3)C2)cc1 [Compound 345, (R)-1-(6-(4-(2-aminoethyl)piperidin-1-yl)-2-(trifluoromethyl)pyrimidin-4-yl)-N-(4-cyanophenethyl)piperidine-3-carboxamide]
20 | 100 to 999 | < 100 | N#Cc1ccc(CCNC(=O)[C@@H]2CCCN2c2cc(-c3ccc(CCC(=O)N[C@@H](CCCNC(=N)N)C(=O)O)cc3)cc(C(F)(F)F)n2)cc1 [Compound 207, (S)-2-(3-(4-(2-((S)-2-((4-cyanophenethyl)carbamoyl)pyrrolidin-1-yl)-6-(trifluoromethyl)pyridin-4-yl)phenyl)propanamido)-5-guanidino-pentanoic acid]
21 | 1000 to 30000 | < 100 | N#Cc1ccc(CCNC(=O)[C@@H]2CCCN2c2cc(-c3cccc(CCC(=O)NCCS(=O)(=O)O)c3)nc(C(F)(F)F)n2)cc1 [Compound 190, (S)-2-(3-(3-(6-(2-((4-cyanophenethyl)-carbamoyl)pyrrolidin-1-yl)-2-(trifluoromethyl)pyrimidin-4-yl)phenyl)-propanamido)ethanesulfonic acid]
22 | < 100 | < 100 | N#Cc1ccc(CCNC(=O)[C@@H]2CCCN2c2cc(N3CCC(CCCC(=O)N[C@H](CCCNC(=N)N)C(=O)N[C@H](CCC(=O)O)C(=O)O)CC3)nc(C(F)(F)F)n2)cc1 [Compound 203, (R)-2-((R)-2-(4-(1-(6-((S)-2-((4-cyanophenethyl)carbamoyl)pyrrolidin-1-yl)-2-(trifluoromethyl)pyrimidin-4-yl)piperidin-4-yl)butanamido)-5-guanidino-pentanamido)pentanedioic acid]
